Laboratory results as given in patent publication EP0117176A1, “Zinc salt of L-thiazolidine-4-carboxylic acid, its preparation, compositions containing it and its use” (PIERRE FABRE S.A., priority 1983, dated 1984).

Experiments:
[1] = Antioxidant power: peroxide index during oxidation of linoleic acid (method of CARNAT and POURRAT, linoleic acid instead of linseed oil)
Method: La mesure du pouvoir antioxydant est effectuée selon la méthode décrite par CARNAT et POURRAT (Ann. Pharm. Fr. 1979, 37, n° 3-4, p. 119-124) en remplaçant l'huile de lin par de l'acide linoléique. L'oxydation de l'acide linoléique est suivie chaque jour par une mesure de l'indice de péroxyde Ip.
Dans un flacon contenant l'acide linoléique, on ajoute 15 ml de CHCl3, 20 ml d'acide acétique RP puis 1 ml de solution aqueuse saturée de IK. On agite une minute et on laisse reposer le flacon 5 minutes à l'obscurité.
A près voir ajouté 100 ml d'eau, on dose l'iode libéré par du thiosulfate de sodium 0,01 N.

Solubility = format: physicochemical; conditions: dans les solvants organiques
Source text: Solubilité : Soluble dans l'eau à 1 %. Insoluble dans les solvants organiques.

lipase = test: Antilipase power: inhibition of hydrolysis of glycerol tributyrate by lipase; format: biochemical; conditions: substrate tributyrate de glycérol
Method: Le milieu d'incubation témoin ne contient que des acides gras estérifiés (tributyrate de glycérol).
L'ajout de lipase dans le milieu entraîne l'hydrolyse du tributyrate de glycérol.
L'incorporation de L-thiazolidine-4 carboxylate de zinc avant l'adjonction de lipase empêche la libération d'acide butyrique. Les résultats obtenus sont regroupés dans le tableau suivant : […]

[2] = Local tolerance on shaved flank; format: in vivo; conditions: 5 cobayes albinos adultes; application three times a week for two weeks on shaved flank
Source text: La tolérance a été recherchée sur 5 cobayes albinos adultes.

## L-thiazolidine-4 carboxylate de zinc
[1]; Temps 0 h
  Indice de péroxydes: 0,91
[1]; Temps 24 h
  Indice de péroxydes: 12,7
[1]; Temps 48 h
  Indice de péroxydes: 25.2
Solubility
  Solubilité: Insoluble
lipase; 5 mg
  % d'inhibition mesuré: 52%
lipase; 10 mg
  % d'inhibition mesuré: 71,5%
[2]
  Tolérance locale: aucune réaction
